# Results as given in patent US7560474B2, “Derivatives of pyridilethanol (phenylethyl) amines as inhibitors of cholesterol biosynthesis, process for their preparation and pharmaceutical compositions containing them” (Lek Pharmaceuticals d.d., priority 2002, dated 2009).
# Entries after “also recorded” stand apart in the source; their conditions may differ. Structures can show the parent of a compound that is named as a salt.
# How the values were obtained:
# [1] = test system: cholesterol biosynthesis in immortal human hepatocyte cell line HepG2; assay: Metabolic labeling of immortal human hepatocytes (HepG2) with [3H] acetate, HPLC sterol analysis; assay type: cell-based; conditions: 100 μM inhibitor, HepG2 cells, [3H] acetate labeling, radiodetector HPLC; for quantity of radiolabelled cholesterol synthesized (inhibition of cholesterol biosynthesis): FIG. 3
# Procedure: In accordance with the invention goal, the effect of the novel derivatives of pyridylethanol (phenylethyl) amine as ligands of sigma receptors on inhibition of cholesterol biosynthesis was assessed. An ex vivo method of metabolic labeling of immortal human hepatocytes was employed. The radioactively labelled early precursor of cholesterol [^3H] acetate was added to cells with or without addition of sigma ligands. Two independent experiments of metabolic labeling and sterol analysis were performed. […] The inhibitory effect on cholesterol biosynthesis of our novel ligands of sigma receptors BK-31.2 HBr, BK-33.2HBr, BK-35.2HBr and BK-38.2HBr), prepared according to examples 1 to 4, was evaluated. An ex vivo method of metabolic labeling of immortal human hepatocytes was applied. The radiolabel led precursor of cholesterol biosynthesis [^3H] acetate was added to the cells with or without the addition of sigma ligands. Finally, two independent experiments of metabolic labeling and sterol analysis were performed for each compound. The immortal human hepatocyte cell line HepG2 was split to the 75 cm^2 flasks in the ratio 1:2, two flasks for each condition. The cells were cultured in the DMEM culture ([…] 0.0626 […] 0.042 […]-thryptophan 0.016 g/l, L-[…]Na.2H2O 0.10379 […], choline chloride 0.004 g/l, folic acid 0.004 g/l, myo-inositol 0.0072 g/l, niacinamide 0.004 g/l, D-pantothenic acid 0.004 g/l, pyridoxal.HCl 0.004 g/l, riboflavin 0.0004 g/l, thiamine.HCl 0.004 g/l, calcium chloride.2H2O 0.265 g/l, ferric nitrate.9H2O 0.0001 g/l, magnesium sulfate [anhydride] 0.09767 g/l, potassium chloride 0.4 g/l, sodium chloride 6.4 g/l, monobasic sodium phosphate [anhydride] 0.109 g/l, glucose 4.5 g/l and phenol red, Na 0.0159 g/l) with 5% bovine serum and 1% L-glutamine. After 24 hours a medium with 100 μM ligands of sigma receptors (BK-31.2HBr, BK-33.2HBr, BK-35.2HBr and BK-38.2HBr) was added to the cells. The known inhibitors of cholesterol biosynthesis, 100 μM lovastatin or pravastatin, both the inhibitors of HMG-CoA reductase, and 100 μM fluconazole that inhibits enzymes of the P450 family to which lanosterol 14α-[…] (CYP51) also belongs, were used as positive controls. The cells grown in normal media without the addition of inhibitors served as negative control. The medium was exchanged after 24 hours. After 48 hours, 40 μCi [^3H] acetate was added per 1 ml of the medium (400 μCi per flask). The medium was aspirated after 24 hours, and the cells were tryptinized with 2 ml of trypsine. The cells were collected in 4 ml of the medium, centrifuged, and the cell pellet resuspended in distilled water (1 ml per flask). The cells were homogenized by freeze-thawing. Sterols were extracted from the homogenate. Protein concentration was determined in the homogenate with the Bio-rad reagent according to the recommended protocol of the producer. The homogenate was transferred into glass vials with an inert cover. 3 ml of the extraction solution (75% n-heptane:25% isopropanol (vol/vol)) was added. The closed vials were shaken vigorously on a shaker in the dark room for 2 hours. […] Until analysis, the samples were stored in the HPLC-grade solvent in dark and cold. The dried extracts were dissolved in 250 μl n-heptane. 100 μl aliquots were injected into the normal phase column (ChromSpher Si, 150 mm×3 mm, particle size 5 μm) with the mobile phase 99.5% n-heptane:0.5% isopropanol at flow rate 1 ml/min and room temperature. […] For determination of sterol after metabolic labeling, a radiodetector with the flow-through cell was used. […] G. Byskov, Rikhospitalitet, University of Copenhagen). The results were normalized according to the quantity of internal standard ergosterol and the concentration of proteins in the homogenate. The results represent the average value of two measurements with appropriate standard deviation.
SMILES,quantity of radiolabelled cholesterol synthesized (inhibition of cholesterol biosynthesis) [1],other results
"CCCN(CCc1ccccc1)CC(O)c1cccnc1 (stereo not drawn) (as salt: hydrobromid) [BK-31.2HBr, 1-(3-pyridyl)-2-(N-(2-phenylethyl)-N-propylamino)ethanol dihydrobromide]",–,melting point: 113 to 120 °C
"CCCN(CCc1ccccc1)CC(O)c1cccnc1 (stereo not drawn) [BK-31.2HBr, 1-(3-pyridyl)-2-(N-(2-phenylethyl)-N-propylamino)ethanol dihydrobromide]",significantly lowered amounts of cholesterol,–
"CN(CCc1ccc(Cl)c(Cl)c1)CC(O)c1cccnc1 (stereo not drawn) [BK-33.2HBr, 1-(3-pyridyl)-2-(N-(2-(3,4-dichlorophenyl)ethyl)-N-methylamino)ethanol dihydrobromide]",significantly lowered amounts of cholesterol,–
"CCCN(CCc1ccc(Cl)c(Cl)c1)CC(O)c1cccnc1 (stereo not drawn) [BK-35.2HBr, 1-(3-pyridyl)-2-(N-(2-(3,4-dichlorophenyl)ethyl)-N-propylamino)ethanol dihydrobromide]",–,"quantity of radiolabelled cholesterol synthesized (inhibition of cholesterol biosynthesis) ([1]; dihydrobromide): most pronounced; also recorded: cholesterol quantity is diminished; also recorded: significantly lowered amounts of cholesterol; also recorded: greatest lowering of cholesterol; quantity of radiolabelled cholesterol synthesized (inhibition of cholesterol biosynthesis) ([1]; listed as BK 35.2HBr, dihydrobromide): highest potential to inhibit cholesterol biosynthesis; amount of intermediate sterols representing lanosterol or T-MAS (accumulation of early postsqualene intermediates) ([1]; FIG. 4, dihydrobromide): ten-fold increase; also recorded: increased"
"CN(CCc1ccc(Cl)c(Cl)c1)CC(O)c1ccncc1 (stereo not drawn) [BK-38.2HBr, 1-(4-pyridyl)-2-(N-(2-(3,4-dichlorophenyl)ethyl)-N-methylamino)ethanol dihydrobromide]",significantly lowered amounts of cholesterol,–
"OC(Cn1cncn1)(Cn1cncn1)c1ccc(F)cc1F [Fluconazole, fluconazole, reference compound]",weaker inhibitor of cholesterol biosynthesis,–
"CC[C@H](C)C(=O)O[C@H]1C[C@@H](C)C=C2C=C[C@H](C)[C@H](CC[C@@H]3C[C@@H](O)CC(=O)O3)[C@H]21 [Lovastatin, lovastatin, reference compound]",completely blocked the biosynthesis,–
